From patent US11292971B2, “Dissolution of hexamine in non-aqueous solvent” (ECOLAB USA INC., priority 2017, dated 2022)

Columns and labels:
[1] = Dissolution of hexamine in cinnamyl alcohol and glycerin: slurry left two days, clear supernatant analyzed for composition; assay type: physicochemical; details: about room temperature
Procedure: Slurries were prepared by mixing hexamine in cinnamyl alcohol or a mixture of cinnamyl alcohol and glycerin at about room temperature. The compositions were then allowed to sit undisturbed for two days and the clear supernatant decanted off and analyzed for composition. As the results below illustrate, clear stable solutions of hexamine in various ratios of glycerin and cinnamyl alcohol were obtained.

[2] = 20° C., cited from earlier work

Hexamine in stable solution ([1]; cinnamyl alcohol 16, glycerin (<1% water) 76 weight %): 8 Weight %
Hexamine in stable solution ([1]; cinnamyl alcohol 32, glycerin (<1% water) 63 weight %): 5 Weight %
Hexamine in stable solution ([1]; cinnamyl alcohol 37, glycerin (<1% water) 55 weight %): 8 Weight %
Hexamine in stable solution ([1]; cinnamyl alcohol 50, glycerin (<1% water) 43 weight %): 7 Weight %
Hexamine in stable solution ([1]; cinnamyl alcohol 59, glycerin (<1% water) 34 weight %): 7 Weight %
Hexamine in stable solution ([1]; cinnamyl alcohol 68, glycerin (<1% water) 22 weight %): 10 Weight %
Hexamine in stable solution ([1]; cinnamyl alcohol 78, glycerin (<1% water) 11 weight %): 11 Weight %
Hexamine in stable solution ([1]; cinnamyl alcohol 84, glycerin (<1% water) 6 weight %): 10 Weight %
Hexamine in stable solution ([1]; cinnamyl alcohol 93, glycerin (<1% water) 0 weight %): 7 Weight %
Structure (SMILES): C1N2CN3CN1CN(C2)C3 [Hexamine, 1,3,5,7-tetraazatricyclo[3.3.1.1^3,7]decane]
solubility in acetone ([2]; acetone): 0.65 g
solubility in benzene ([2]; benzene): 0.23 g
solubility in chloroform ([2]; chloroform): 13.4 g
solubility in ethanol ([2]; ethanol): 2.89 g
solubility in ether ([2]; ether): 0.06 g
solubility in methanol ([2]; methanol): 7.25 g
solubility in petroleum ether ([2]; petroleum ether): near zero
solubility in xylene ([2]; xylene): 0.14 g
